Experimental findings from patent publication US20260062387A1, “SALT-INDUCIBLE KINASE INHIBITOR COMPOUND AND PHARMACEUTICAL COMPOSITION INCLUDING THE SAME” (MITSUBISHI TANABE PHARMA CORPORATION, priority 2023, published 2026) are described below.

Each structure is given as a SMILES string.

Common to all, as to format: biochemical
One assay concerns the target GST-tagged SIK1 (Homo sapiens (Human), UniProt P57059). Briefly: SIK1 inhibition test (ADP-Glo Max Assay). The settings on record: enzyme 20 nM, AMARA Peptide 200 μM, ATP 1 mM, 2 hours room temperature. The protocol:
(§1) The compounds described in Examples above were used in the SIK1, SIK2, and SIK3 inhibition test.
(§2) The inhibitory activity of the compound for SIK1, SIK2, and SIK3 enzymes was assayed by measuring the amount of ADP, an enzyme reaction product, with ADP-Glo™ Max Assay (Promega). Enzymes, specifically, GST-tagged SIK1 (Carna Biosciences, Inc.), GST-tagged SIK2 (Carna Biosciences, Inc.), and GST-tagged SIK3 (SignalChem) were prepared in a reaction buffer (15 mM tris-hydrochloric acid buffer (pH 7.5), 0.001% Triton X-100, 0.01% BSA) so that the final concentration would be 20 nM, 3 nM, and 100 nM. Enzyme solutions were thus formed. In a reaction buffer, AMARA Peptide (SignalChem) as a substrate with a final concentration of 200 μM (SIK1, SIK2) or 100 μM (SIK3), ATP (Promega) with a final concentration of 1 mM, and magnesium chloride with a final concentration of 5 mM were prepared. Substrate solutions were thus formed. The enzyme solution, the substrate solution, and a DMSO solution of a concentration of the test compound were mixed together and reacted at room temperature for 2 hours. After the reaction, ADP-Glo™ Reagent (Promega) was added, and the reaction was performed at room temperature for 30 minutes. Subsequently, ADP-Glo™ Max Detection Reagent (Promega) was added, and the reaction was performed at room temperature for 30 minutes. The emission by the luciferase reaction was measured with PHERAstar FSX (BMG LABTECH).
(§3) The inhibitory ratio (%) was calculated by: % Inhibition={1−(intensity of sample−intensity of blank (no enzyme solution added))/(intensity of control (DMSO alone)−intensity of blank)}×100. The inhibitory concentration IC50 was calculated based on 16 data values obtained in the concentration response test.
(In general: ADP-Glo first removes unused ATP, then detects ADP through luciferase.)

The target of another assay is GST-tagged SIK2 (Homo sapiens (Human), UniProt Q9H0K1). The experiment in a line: SIK2 inhibition test (ADP-Glo Max Assay). As to conditions: enzyme 3 nM, AMARA Peptide 200 μM, ATP 1 mM, 2 hours room temperature. How it is done:
as §1, §2, §3

The next assay addresses GST-tagged SIK3 (Homo sapiens (Human), UniProt Q9Y2K2). Briefly: SIK3 inhibition test (ADP-Glo Max Assay). As to conditions: enzyme 100 nM, AMARA Peptide 100 μM, ATP 1 mM, 2 hours room temperature. How it is done:
as §1, §2, §3

Sequence of GST-tagged SIK3 (Q9Y2K2 whole entry): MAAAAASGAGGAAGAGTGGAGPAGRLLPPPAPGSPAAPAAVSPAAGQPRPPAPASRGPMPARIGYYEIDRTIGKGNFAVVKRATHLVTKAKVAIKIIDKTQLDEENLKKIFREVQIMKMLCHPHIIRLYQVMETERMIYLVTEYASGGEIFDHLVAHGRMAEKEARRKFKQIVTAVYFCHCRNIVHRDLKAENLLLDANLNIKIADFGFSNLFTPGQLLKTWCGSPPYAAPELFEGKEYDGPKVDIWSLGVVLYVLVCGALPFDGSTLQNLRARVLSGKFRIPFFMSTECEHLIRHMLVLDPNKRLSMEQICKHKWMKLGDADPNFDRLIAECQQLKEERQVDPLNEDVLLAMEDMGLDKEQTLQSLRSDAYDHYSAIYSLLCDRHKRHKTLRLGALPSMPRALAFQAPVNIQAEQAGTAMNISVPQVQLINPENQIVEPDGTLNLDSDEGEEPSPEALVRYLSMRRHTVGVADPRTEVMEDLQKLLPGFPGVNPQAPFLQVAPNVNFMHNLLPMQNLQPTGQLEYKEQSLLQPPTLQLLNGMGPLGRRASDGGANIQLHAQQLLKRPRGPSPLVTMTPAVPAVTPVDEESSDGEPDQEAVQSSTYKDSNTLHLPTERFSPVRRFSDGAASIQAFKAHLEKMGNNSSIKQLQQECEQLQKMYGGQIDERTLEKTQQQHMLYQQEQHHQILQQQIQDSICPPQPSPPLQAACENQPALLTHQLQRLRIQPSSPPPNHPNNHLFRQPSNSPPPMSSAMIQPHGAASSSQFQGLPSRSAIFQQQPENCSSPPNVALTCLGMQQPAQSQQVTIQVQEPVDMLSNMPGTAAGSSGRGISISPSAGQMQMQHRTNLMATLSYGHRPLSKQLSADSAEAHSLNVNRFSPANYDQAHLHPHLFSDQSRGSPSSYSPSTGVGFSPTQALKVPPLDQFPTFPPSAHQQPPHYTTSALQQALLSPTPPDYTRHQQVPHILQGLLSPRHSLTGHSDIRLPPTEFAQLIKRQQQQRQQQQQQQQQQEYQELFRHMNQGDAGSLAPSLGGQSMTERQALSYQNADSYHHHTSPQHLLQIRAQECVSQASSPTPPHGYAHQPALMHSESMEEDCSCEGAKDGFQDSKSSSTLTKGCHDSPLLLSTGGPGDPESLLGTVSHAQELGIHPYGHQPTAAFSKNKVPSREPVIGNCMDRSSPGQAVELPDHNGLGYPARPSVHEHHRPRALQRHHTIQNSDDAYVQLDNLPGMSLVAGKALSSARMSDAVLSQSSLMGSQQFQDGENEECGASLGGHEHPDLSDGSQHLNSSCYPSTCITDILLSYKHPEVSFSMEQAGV
Sequence of GST-tagged SIK1 (P57059 whole entry): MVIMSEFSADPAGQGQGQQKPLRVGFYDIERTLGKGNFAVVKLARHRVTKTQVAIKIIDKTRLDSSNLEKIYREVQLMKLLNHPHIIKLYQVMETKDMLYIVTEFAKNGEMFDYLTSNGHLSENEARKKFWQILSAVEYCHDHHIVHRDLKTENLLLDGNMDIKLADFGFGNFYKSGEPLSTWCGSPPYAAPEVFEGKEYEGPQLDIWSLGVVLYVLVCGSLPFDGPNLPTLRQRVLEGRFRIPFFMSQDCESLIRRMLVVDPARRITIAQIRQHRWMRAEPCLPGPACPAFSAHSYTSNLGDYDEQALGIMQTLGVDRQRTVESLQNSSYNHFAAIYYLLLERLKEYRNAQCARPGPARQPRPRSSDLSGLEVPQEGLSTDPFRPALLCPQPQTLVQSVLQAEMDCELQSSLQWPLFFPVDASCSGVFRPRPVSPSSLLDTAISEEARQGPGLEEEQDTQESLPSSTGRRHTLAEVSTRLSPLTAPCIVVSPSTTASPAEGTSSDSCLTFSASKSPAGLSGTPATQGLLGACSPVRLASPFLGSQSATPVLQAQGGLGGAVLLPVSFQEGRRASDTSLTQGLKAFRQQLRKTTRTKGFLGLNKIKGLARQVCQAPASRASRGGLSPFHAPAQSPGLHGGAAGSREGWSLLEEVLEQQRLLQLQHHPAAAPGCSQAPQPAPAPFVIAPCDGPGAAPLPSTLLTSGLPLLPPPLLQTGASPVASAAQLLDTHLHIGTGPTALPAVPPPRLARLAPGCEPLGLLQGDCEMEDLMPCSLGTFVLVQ
Sequence of GST-tagged SIK2 (Q9H0K1 whole entry): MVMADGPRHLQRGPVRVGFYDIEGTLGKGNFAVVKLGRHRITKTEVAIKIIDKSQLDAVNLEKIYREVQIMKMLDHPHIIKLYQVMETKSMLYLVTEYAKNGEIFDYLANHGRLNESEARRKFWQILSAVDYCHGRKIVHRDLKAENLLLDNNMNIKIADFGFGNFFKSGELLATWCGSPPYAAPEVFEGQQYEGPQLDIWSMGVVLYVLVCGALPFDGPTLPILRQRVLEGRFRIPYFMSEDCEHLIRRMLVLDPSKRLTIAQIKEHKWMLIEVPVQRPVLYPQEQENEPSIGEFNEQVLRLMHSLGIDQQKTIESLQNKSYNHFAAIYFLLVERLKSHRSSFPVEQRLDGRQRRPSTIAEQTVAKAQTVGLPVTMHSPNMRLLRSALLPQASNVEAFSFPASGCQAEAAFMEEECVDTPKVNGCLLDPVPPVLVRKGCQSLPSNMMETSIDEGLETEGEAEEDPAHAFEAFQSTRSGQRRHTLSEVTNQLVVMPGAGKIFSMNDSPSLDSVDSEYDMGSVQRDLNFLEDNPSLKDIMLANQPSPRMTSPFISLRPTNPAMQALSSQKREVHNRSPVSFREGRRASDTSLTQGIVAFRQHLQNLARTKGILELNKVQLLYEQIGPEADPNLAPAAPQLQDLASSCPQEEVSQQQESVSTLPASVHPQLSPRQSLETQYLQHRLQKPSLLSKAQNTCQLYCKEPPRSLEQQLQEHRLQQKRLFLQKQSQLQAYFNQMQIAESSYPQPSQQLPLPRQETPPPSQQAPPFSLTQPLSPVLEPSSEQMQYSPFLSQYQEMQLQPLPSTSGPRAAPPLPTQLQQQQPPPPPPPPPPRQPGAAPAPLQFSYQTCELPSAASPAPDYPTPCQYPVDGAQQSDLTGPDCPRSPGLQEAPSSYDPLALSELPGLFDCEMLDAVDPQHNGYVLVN

With `COc1cc(-c2c3c(C#N)cc(-c4cnn(C)c4)cc3nn2C)cc(OC(F)F)c1C(=O)NC[C@@H]1CC1(F)F` (single isomer, unassigned) [Example 46], the IC50 against GST-tagged SIK1 came out at 14.7 nM; at GST-tagged SIK2, 5.3 nM; at GST-tagged SIK3, 7.2 nM.

As for `COc1cc(-c2c3c(C#N)cc(-c4cnn(CCN5CCOCC5)c4)cc3nn2C)cc(OC(F)F)c1C(=O)NC[C@@H]1CC1(F)F` (single isomer, unassigned) [Example 85], the IC50 on GST-tagged SIK1 worked out at 9.9 nM; against GST-tagged SIK2, 7.1 nM; against GST-tagged SIK3, 8.6 nM.

As for `COc1cc(-c2c3c(C#N)cc(-c4cnn(CC(C)(C)O)c4)cc3nn2C)cc(OC(F)F)c1C(=O)NC[C@@H]1CC1(F)F` (single isomer, unassigned) [Example 86], the IC50 on GST-tagged SIK1 stood at 13.7 nM; at GST-tagged SIK2 it was 13.1 nM; against GST-tagged SIK3, 19.4 nM.

Consider `COc1cc(-c2c3c(C#N)cc(-c4cnn(C)c4)cc3nn2C)cc2c1C(=O)NC[C@@H]2C` (single isomer, unassigned) [Example 88], for which the IC50 against GST-tagged SIK1 amounted to 7.4 nM; at GST-tagged SIK2, 4.5 nM; against GST-tagged SIK3 it was 5.3 nM.

Regarding `COc1cc(-c2c3c(C#N)cc(-c4cnn(C[C@H](C)O)c4)cc3nn2C)cc(OC(F)F)c1C(=O)NC[C@@H]1CC1(F)F` (single isomer, unassigned) [Example 95, 4-[4-cyano-6-[1-[(2S)-2-hydroxypropyl]pyrazol-4-yl]-2-methylindazol-3-yl]-N-[[(1R*)-2,2-difluorocyclopropyl]methyl]-2-(difluoromethoxy)-6-methoxybenzamide], the results for the IC50 against GST-tagged SIK1, at GST-tagged SIK2 and on GST-tagged SIK3 were 16 nM, 13.3 nM and 5.7 nM, respectively.

On to `CCn1cc(-c2cc(C#N)c3c(-c4cc(OC)c5c(c4)[C@@H](C)CNC5=O)n(C)nc3c2)cn1` (single isomer, unassigned) [Example 105], for which the IC50 was found to be 10 nM against GST-tagged SIK1, 3.4 nM against GST-tagged SIK2 and 8.1 nM on GST-tagged SIK3.

Take `COc1cc(-c2c3c(C#N)cc(-c4cnn(CC(F)F)c4)cc3nn2C)cc2c1C(=O)NC[C@@H]2C` (single isomer, unassigned) [Example 107]: the values for the IC50 against GST-tagged SIK1, against GST-tagged SIK2 and against GST-tagged SIK3 were 8.3 nM, 4 nM and 8 nM, respectively.

`COc1cc(-c2c3c(C#N)cc(-c4cnn(CC(F)(F)F)c4)cc3nn2C)cc2c1C(=O)NC[C@@H]2C` (single isomer, unassigned) [Example 126]: the IC50 against GST-tagged SIK1 came to 7.3 nM; against GST-tagged SIK2, 1.5 nM; against GST-tagged SIK3 it was 5.1 nM.

As to `COCCn1cc(-c2cc(C#N)c3c(-c4cc(OC)c5c(c4)[C@@H](C)CNC5=O)n(C)nc3c2)cn1` (single isomer, unassigned) [Example 127], the IC50 turned out to be 6.9 nM at GST-tagged SIK1, 1.3 nM against GST-tagged SIK2 and 7.6 nM at GST-tagged SIK3.

Consider `COc1cc(-c2c3c(C#N)cc(-c4cnn(C(F)F)c4)cc3nn2C)cc2c1C(=O)NC[C@@H]2C` (single isomer, unassigned) [Example 128], for which the results for the IC50 against GST-tagged SIK1, on GST-tagged SIK2 and on GST-tagged SIK3 were 8.2 nM, 1 nM and 6.6 nM, respectively.

For the compound `CCOc1cc(-c2cnn(C)c2)cc2nn(C)c(-c3cc(OC)c4c(c3)[C@@H](C)CNC4=O)c12` (single isomer, unassigned) [Example 163], the results for the IC50 at GST-tagged SIK1, on GST-tagged SIK2 and against GST-tagged SIK3 were 5.1 nM, 1.4 nM and 11.6 nM, respectively.

For the compound `COc1cc(-c2c3c(OC(F)F)cc(-c4cnn(C)c4)cc3nn2C)cc2c1C(=O)NC[C@@H]2C` (single isomer, unassigned) [Example 164], the IC50 came out at 7.1 nM on GST-tagged SIK1, 2 nM against GST-tagged SIK2 and 19.7 nM on GST-tagged SIK3.

As to `COc1cc(-c2cnn(C)c2)cc2nn(C)c(-c3cc(OC(F)F)c4c(c3)[C@@H](C)CNC4=O)c12` (single isomer, unassigned) [Example 165], the IC50 at GST-tagged SIK1 was determined as 5.2 nM; against GST-tagged SIK2 it was 1.5 nM; at GST-tagged SIK3 it was 6.8 nM.

In the case of `COc1cc(-c2cnn(C)c2)cc2nn(C)c(-c3cc(OC(F)F)c4c(c3)[C@@H](C)CNC4=O)c12` (single isomer, unassigned) [Example 166], the IC50 on GST-tagged SIK1 turned out to be 11.9 nM; on GST-tagged SIK2 it was 3.1 nM; against GST-tagged SIK3, 9.6 nM.

As for `COc1cc(-c2c3c(C#N)cc(-c4cnn(C(C)C)c4)cc3nn2C)cc2c1C(=O)NC[C@@H]2C` (single isomer, unassigned) [Example 167], the IC50 at GST-tagged SIK1 amounted to 8.5 nM; against GST-tagged SIK2, 1.7 nM; against GST-tagged SIK3 it was 4.1 nM.

Regarding `CCCCn1cc(-c2cc(C#N)c3c(-c4cc(OC)c5c(c4)[C@@H](C)CNC5=O)n(C)nc3c2)cn1` (single isomer, unassigned) [Example 168], the IC50 on GST-tagged SIK1 is 6.8 nM; at GST-tagged SIK2, 1.4 nM; against GST-tagged SIK3, 2.7 nM.

For the compound `COc1cc(-c2c3c(C#N)cc(-c4cnn(CC(C)C)c4)cc3nn2C)cc2c1C(=O)NC[C@@H]2C` (single isomer, unassigned) [Example 169], the IC50 amounted to 8.1 nM at GST-tagged SIK1, 1.9 nM against GST-tagged SIK2 and 3.4 nM on GST-tagged SIK3.

As to `COc1cc(-c2c3c(C#N)cc(-c4cnn(CC5CC5)c4)cc3nn2C)cc2c1C(=O)NC[C@@H]2C` (single isomer, unassigned) [Example 170], the IC50 against GST-tagged SIK1 was 8.5 nM; on GST-tagged SIK2, 1.7 nM; against GST-tagged SIK3, 4.3 nM.

Consider `COc1cc(-c2c3c(C#N)cc(-c4cnn(CCC(C)C)c4)cc3nn2C)cc2c1C(=O)NC[C@@H]2C` (single isomer, unassigned) [Example 171], for which the IC50 on GST-tagged SIK1 was 9.1 nM; against GST-tagged SIK2 it was 2.3 nM; against GST-tagged SIK3 it was 4.7 nM.

For the compound `COCCn1cc(-c2cc(C#N)c3c(-c4cc(OC(F)F)c5c(c4)[C@@H](C)CNC5=O)n(C)nc3c2)cn1` (single isomer, unassigned) [Example 172], the results for the IC50 at GST-tagged SIK1, at GST-tagged SIK2 and against GST-tagged SIK3 were 19.5 nM, 7.8 nM and 7 nM, respectively.

`COCCn1cc(-c2cc(C#N)c3c(-c4cc(OC(F)F)c5c(c4)[C@@H](C)CNC5=O)n(C)nc3c2)cn1` (single isomer, unassigned) [Example 173]: the values for the IC50 against GST-tagged SIK1, against GST-tagged SIK2 and on GST-tagged SIK3 were 7.5 nM, 2.1 nM and 3.5 nM, respectively.

Take `CCn1cc(-c2cc(C#N)c3c(-c4cc(OC(F)F)c5c(c4)[C@@H](C)CNC5=O)n(C)nc3c2)cn1` (single isomer, unassigned) [Example 174]: the IC50 against GST-tagged SIK1 came out at 8.6 nM; against GST-tagged SIK2, 2.3 nM; on GST-tagged SIK3, 2.6 nM.

Regarding `COc1cc(-c2cnn(C[C@H](C)O)c2)cc2nn(C)c(-c3cc(OC(F)F)c4c(c3)[C@@H](C)CNC4=O)c12` (single isomer, unassigned) [Example 175], the IC50 at GST-tagged SIK1 amounted to 7.5 nM; against GST-tagged SIK2 it was 2.9 nM; on GST-tagged SIK3, 7.2 nM.

For `COc1cc(-c2cnn(C[C@H](C)O)c2)cc2nn(C)c(-c3cc(OC(F)F)c4c(c3)[C@@H](C)CNC4=O)c12` (single isomer, unassigned) [Example 176], the IC50 at GST-tagged SIK1 stood at 11 nM; on GST-tagged SIK2, 5.9 nM; against GST-tagged SIK3, 11.9 nM.

Regarding `COCCn1cc(-c2cc(OC)c3c(-c4cc(OC(F)F)c5c(c4)[C@@H](C)CNC5=O)n(C)nc3c2)cn1` (single isomer, unassigned) [Example 177], the results for the IC50 against GST-tagged SIK1, against GST-tagged SIK2 and on GST-tagged SIK3 were 5.4 nM, 3.1 nM and 10.1 nM, respectively.

Turning to `COCCn1cc(-c2cc(OC)c3c(-c4cc(OC(F)F)c5c(c4)[C@@H](C)CNC5=O)n(C)nc3c2)cn1` (single isomer, unassigned) [Example 178], the IC50 against GST-tagged SIK1 came to 10.1 nM; at GST-tagged SIK2, 4.7 nM; at GST-tagged SIK3, 15.6 nM.

On to `CCn1cc(-c2cc(OC)c3c(-c4cc(OC(F)F)c5c(c4)[C@@H](C)CNC5=O)n(C)nc3c2)cn1` (single isomer, unassigned) [Example 179], for which the IC50 on GST-tagged SIK1 was found to be 5.7 nM; at GST-tagged SIK2, 2 nM; at GST-tagged SIK3, 6.1 nM.

Consider `CCn1cc(-c2cc(OC)c3c(-c4cc(OC(F)F)c5c(c4)[C@@H](C)CNC5=O)n(C)nc3c2)cn1` (single isomer, unassigned) [Example 180], for which the IC50 on GST-tagged SIK1 amounted to 13.2 nM; on GST-tagged SIK2 it was 5.1 nM; against GST-tagged SIK3 it was 12.4 nM.

Regarding `C[C@H]1CNC(=O)c2c(OC(F)F)cc(-c3c4c(C#N)cc(-c5cnn(C)c5)cc4nn3C)cc21` (single isomer, unassigned) [Example 181], the IC50 against GST-tagged SIK1 was determined as 19.4 nM; at GST-tagged SIK2, 6.1 nM; against GST-tagged SIK3, 3.5 nM.

The term IC50 denotes the concentration at which inhibition is half-maximal. High values mean weaker potency, low ones greater potency.
